Laboratory results taken from publication PMC10587737, “Dracorhodin targeting CMPK2 attenuates inflammation: A novel approach to sepsis therapy” (Clinical and Translational Medicine, 2023).

Tests used:
[1] = target: T1, CMPK2 (Homo sapiens, UniProt Q5EBM0); experiment: CMPK2 kinase activity assay (ADP-GLO); type: biochemical; details: ligand concentration 10 μM, luminescence; for inhibition at 10 µM: read-out: CMPK2 inhibition
T1 sequence (Q5EBM0 22-449): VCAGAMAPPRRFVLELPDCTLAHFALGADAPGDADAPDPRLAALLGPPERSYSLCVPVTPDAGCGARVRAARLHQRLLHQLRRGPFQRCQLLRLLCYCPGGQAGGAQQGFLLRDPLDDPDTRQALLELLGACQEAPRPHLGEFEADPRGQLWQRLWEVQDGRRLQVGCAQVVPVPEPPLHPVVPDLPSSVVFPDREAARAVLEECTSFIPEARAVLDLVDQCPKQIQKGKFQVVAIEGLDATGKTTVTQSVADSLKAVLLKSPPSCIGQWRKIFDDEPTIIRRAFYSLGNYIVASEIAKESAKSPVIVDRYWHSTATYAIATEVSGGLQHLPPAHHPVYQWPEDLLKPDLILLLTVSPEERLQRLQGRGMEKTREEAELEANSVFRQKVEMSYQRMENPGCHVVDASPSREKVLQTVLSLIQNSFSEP
Description: The range of concentrations used to investigate the effect of small‐molecule ligands on CMPK2 activity was 0.1–150 μM. Each data point contains three biological replicates.
CMPK2 activity was measured by the ADP‐GLO kinase assay according to the guidelines specified in the manufacturer's instructions. In the activity assay, the amount of ADP formed in the CMPK2 reaction was equal to the ATP consumption and proportional to the increase in luminescence generated in the luciferase reaction, which is the experimental principle shown in Figure 1I.

[2] = target: T1, CMPK2; experiment: Ultrafiltration-affinity mass spectrometry screening (FC, CMPK2 vs BSA); type: binding; design: the N‐terminus was truncated by 22 amino acids; 6xHis (C); made in house; host or cells: FreeStyle 293-F cells (pTT5 vector); details: ratio of MS response CMPK2 vs BSA; for FC Positive: positive ion mode; for FC Negative: negative ion mode
Description: The purified kinase CMPK2 was incubated with the six cocktails for 30 min at 37°C in a suitable buffer solution. In the compound cocktail, each compound concentration was 1 μM, and the concentration of the kinase CMPK2 was set at 5 μM. Each of the above incubation solutions was added to a 0.5 mL 10 kDa ultrafiltration tube (Amicon μltra‐0.5 10K Centrifugal Filter Devices, Millipore), and four experimental replicates were conducted for each CMPK2 and BSA pair. The 10 kDa ultrafiltration tube was centrifuged with the incubation solution at 13 000 × g for 20 min at 4°C. Centrifugation was stopped when the solution volume was approximately 100 μL, and then the mixture was washed five times with cold ammonium acetate (150 mM, pH 7.5). For affinity selection, 100 μL of the mixture was transferred after centrifugation and rinsed into a new eppendorf tube. […] The protein precipitate was discarded and the liquid was concentrated with a N2 stream. The residue was re‐dissolved in 50% methanol before injection. BSA samples were processed in a manner parallel to that of CMPK2 samples.
Sample measurement was detected by using an UHPLC instrument (Shimadzu) combined with a Triple TOF 5600^+ MS (SCIEX). Chromatographic separation was conducted with an Acquity UPLC BEH C18 column (1.7 μm, 2.1 × 100 mm, Waters) at a temperature maintained at 40°C and a flow rate of 0.3 mL/min, with mobile phases of water–0.1% formic acid (A) and acetonitrile (B). The linear gradient elution profile was as follows: 0−2 min, 5% B; 2−12 min, 5−30% B; 12−25 min, 30−90% B; 25−30 min, 90% B; and re‐equilibration for 5 min. Subsequently, the gradient was recovered to the initial conditions at the final 1 min. Whether it was a test sample or a quality control (QC) sample, each injection volume was 5 μL.
Briefly, the chromatographic peaks of each bound ligand were extracted using PeakView with identification criteria of precise mass measurement deviation and retention time tolerance of 5 ppm and 0.1 min, respectively. The MS response of each ligand was represented with the integrated peak area extracted by the corresponding extract ion chromatogram. The effective hits were selected on the basis of fold change (FC) value ≥ 2, p value < .05 and cyclic voltammetry (CV) ≤ 30% and were identified as candidate ligands of CMPK2. By extracting the m/z of individual standards from the acquired MS/MS spectrum, the decimal point of RT was used to distinguish the ambiguous compound peaks in the cocktails.
The experimental samples were injected into a UHPLC‐Q‐TOF‐MS system. First, total ion chromatograms (TIC) reflected the general overview of all samples (Supporting Information Figure S2A). […] Among the groups, each sample with a CV more than 30% was considered an abnormal sample and was not considered in the subsequent statistical analysis. In addition, the p value of each sample between the groups was calculated by MetaboAnalyst 5.0, and the significance of differences was determined. In the ultrafiltration‐affinity mass spectrometry profiling, we calculated FC, which is defined as the ratio of the MS response between the compound detected in the CMPK2 and BSA incubation system (Supporting Information Figure S2C,D). […] To select small‐molecule ligands with strong affinity, we determined the screening criteria to be FC ≥ 2. Affinity MS analysis generated a set of raw data, and the compounds that met the pre‐judgment criteria (FC ≥ 2, p < .05) were selected as compound hits (Supporting Information Figure S2).

| SMILES | inhibition at 10 µM [1] [%] | FC Positive [2] | FC Negative [2] | FC value ([2]; Figure S3A) | CMPK2 inhibition [1] |
| --- | --- | --- | --- | --- | --- |
| COc1ccc2ccc(=O)oc2c1 [compound 792, 7-methoxy coumarin] | > 50 | 3.13 |  |  |  |
| O=c1c(O[C@@H]2O[C@H](CO)[C@H](O)[C@H](O)[C@H]2O)c(-c2ccc(O)c(O)c2)oc2cc(O)cc(O)c12 [compound 400, Hyperoside] | > 50 | 4.74 | 6.41 |  |  |
| O=c1ccn([C@H]2C[C@H](O)[C@@H](COP(=O)(O)O)O2)c(=O)[nH]1 [dUMP, reference compound] |  | 1.17 |  | 1.9 |  |
| CC(C)=CCCC(C)(O)[C@H]1CC[C@]2(C)[C@@H]1[C@H](O)C[C@@H]1[C@@]3(C)CC[C@H](O)C(C)(C)[C@@H]3CC[C@]12C (stereo in doubt) [compound 368, Protopanaxadiol] |  |  | 3.70 |  | more than 50% |
